This is an account of results in US5908781A, “Monoclonal antibodies to ceftiofur” (The United States of America as represented by the …, priority 1996, dated 1999).

In one test the target is Cef-68. The experiment in a line: Competitive indirect ELISA (ciELISA), competitor inhibition of MAb Cef-68 binding. The arrangement: species or system Balb/c mice. Conditions: for IC50 (ppb) Values for Antibodies, Cef-68: MAb Cef-68, final dilution 1:20, BSA-S-GMBS-Cef-coated plates, value ± standard deviation, average of 3-6 determinations; for binding with MAb Cef-68 (in words): ciELISA cross-reactivity. As to the method: (§1) The supernatant culture fluid from the cloned hybridomas may also be screened to select for those producing antibodies having a high affinity for ceftiofur. Affinity may be measured using a variety of well known techniques, such as ELISA, RIA or equilibrium dialysis using labeled ceftiofur. […] In accordance with this embodiment, the antibody containing supernatant is added to a ceftiofur or ceftiofur-complex coated substrate such as the wells of a microtiter plate, together with a range of concentrations of free ceftiofur as a competitor. Following incubation and washing, bound antibody in the wells is determined in the same manner as the db-ELISA. Percent inhibition may be calculated as (1-B/Bo)×100, where B is the optical density (OD) of a well with a competitor and Bo is the mean OD of the wells without competitor (control). […] However, for greater accuracy, the affinity may be alternatively measured at 50% inhibition (IC50).
(§2) Antibodies and ELISA Methods. A standard indirect ELISA method in which the hapten conjugate is immobilized on 96-well microtiter plates was used to evaluate the response of Balb/c mice towards the immunogen KLH-SMCC-desCef. The microtiter immunoplates (PGC Scientifics, Gaithersburg, Md.) were washed three times with a solution of 0.05% (v/v) polyoxyethylene sorbitan monolaurate (TWEEN 20)(Sigma Chemical Co., St. Louis, Mo.) in deionized water (TWEEN 20-water) and then coated with 100 μL of the coating antigen, BSA-SMCC-desCef (100 ng/well) in deionized water. The plates were dried overnight at 37° C. The plates were then washed three times with PBS-9 (0.01M sodium phosphate, 0.15M sodium chloride, pH 9) and the unbound active sites were blocked with 200 μL of 3% (w/v) nonfat milk in PBS-9 for 30 min at 37° C. The plates were washed three times with PBS-9, and 100 μL of supernatant containing the antibody was added to the microtiter plates, which were subsequently incubated for 60 min at 37° C. The unbound antibody was removed by washing the plate five times with TWEEN 20-water. Next, 50 μL of goat anti-mouse IgG-peroxidase conjugate (1:500 dilution)(Sigma Chemical Co., St. Louis, Mo.) was added, followed by incubation of the plates at 37° C. for 60 min. Finally, the plates were washed five times with TWEEN 20-water, 100 μL of K-blue substrate (Elisa Technologies, Lexington, Ky.) was added, and the absorbance was read at 655 nm.
(§3) For the ciELISA, the plates were prepared as above except that BSA-S-GMBS-Cef was used as the plate-coating antigen. Competitors were prepared in assay buffer (0.1M Tris, 0.15M sodium chloride, 0.01% (w/v) nonfat milk in deionized water, pH 7.75), added to the wells, and diluted in a 2-fold fashion immediately prior to addition of the anticeftiofur monoclonal antibody (Mab). Tissue culture media containing the anticeftiofur MAbs were used at a final dilution of 1:20 and 1:100 (for MAbs Cef-68 and Cef-116, respectively). The following competitors were used in a cross-reactivity study: ceftiofur sodium, cefteram sodium (Hoffmann-La Roche Inc., Nutley, N.J.), ceftriaxone sodium (Hoffmann-La Roche), cefuroxime sodium (Glaxo Man. Serv. Ltd., Barnard Castle, County Durham, England), ceftazidime pentahydrate (Glaxo), amoxicillin, ampicillin sodium, cefaclor, cefadroxil, cefamandole sodium, cefazolin sodium, cefoperazone sodium, cefotaxime sodium, cefoxitin sodium, cefsulodin sodium, cephalothin sodium, cephapirin sodium, cephradine, cloxacillin sodium, and penicillin-G sodium. Except where indicated otherwise, competitors were obtained from Sigma Chemical Co. (St. Louis, Mo.). The competitors were diluted to afford a solution containing a concentration range of 100-1000 ng/well in column 2 of the 96-well microtiter plates. Each competitor was serially diluted across the plate with columns 11 and 12 serving as controls (i.e. no competitor).

Another test addresses Cef-116. The experiment in a line: Competitive indirect ELISA (ciELISA), competitor inhibition of MAb Cef-116 binding. The arrangement: species or system Balb/c mice. Conditions: for IC50 (ppb) Values for Antibodies, Cef-116: MAb Cef-116, final dilution 1:100, BSA-S-GMBS-Cef-coated plates, value ± standard deviation, average of 3-6 determinations; for IC50 compared to ceftiofur, MAb Cef-116 (in words): ciELISA cross-reactivity; for fold reduction of binding: MAb Cef-116, printed "as compared to MAb Cef-68". As to the method: as §1, §2, §3

Structures are written as SMILES.

Regarding `CO/N=C(\C(=O)N[C@@H]1C(=O)N2C(C(=O)O)=C(COC(C)=O)CS[C@H]12)c1csc(N)n1` [Cefotaxime, cefotaxime], at Cef-68, the “IC50 (ppb) Values for Antibodies, Cef-68” value is 79.67 ± 0.58 ppb and the “binding with MAb Cef-68 (in words)” value is listed as “observed to bind”. Further, on Cef-116, the “IC50 (ppb) Values for Antibodies, Cef-116” value (“IC50 (ppb) Values … Cef-116” for short) was 0.48 ± 0.05 ppb and the “IC50 compared to ceftiofur, MAb Cef-116 (in words)” value is recorded as “IC50 values comparable to those observed with ceftiofur”.

Take `CO/N=C(\C(=O)N[C@@H]1C(=O)N2C(C(=O)O)=C(Cn3nnc(C)n3)CS[C@H]12)c1csc(N)n1` [Cefteram, cefteram]: on Cef-68, the “IC50 (ppb) Values for Antibodies, Cef-68” value was determined as 200.00 ± 10.00 ppb and the “binding with MAb Cef-68 (in words)” value was “observed to bind”. At Cef-116, the “IC50 (ppb) Values … Cef-116” value is 3.57 ± 0.75 ppb and the “fold reduction of binding” value came out at 10 fold.

For `CO/N=C(\C(=O)N[C@@H]1C(=O)N2C(C(=O)O)=C(CSC(=O)c3ccco3)CS[C@H]12)c1csc(N)n1` [Ceftiofur, ceftiofur], the “IC50 (ppb) Values for Antibodies, Cef-68” value at Cef-68 is reported as 32.33 ± 0.58 ppb. Also, the “IC50 (ppb) Values … Cef-116” value on Cef-116 was 0.33 ± 0.05 ppb.

In the case of `CO/N=C(\C(=O)N[C@@H]1C(=O)N2C(C(=O)O)=C(CSc3nc(=O)c(=O)[nH]n3C)CS[C@H]12)c1csc(N)n1` [Ceftriaxone, ceftriaxone], on Cef-68, the “IC50 (ppb) Values for Antibodies, Cef-68” value was found to be 38.67 ± 8.62 ppb and the “binding with MAb Cef-68 (in words)” value is “observed to bind”. Further, on Cef-116, the “IC50 (ppb) Values … Cef-116” value is on record as 0.33 ± 0.05 ppb and the “IC50 compared to ceftiofur, MAb Cef-116 (in words)” value was “IC50 values comparable to those observed with ceftiofur”.

Take `CO/N=C(\C(=O)N[C@@H]1C(=O)N2C(C(=O)O)=C(COC(N)=O)CS[C@H]12)c1ccco1` [Cefuroxime, cefuroxime]: at Cef-116, the “IC50 (ppb) Values … Cef-116” value is recorded as 406.67 ± 130.13 ppb and the “fold reduction of binding” value stood at 100 fold.
